Test results taken from ChEMBL document CHEMBL3813619, “Feeling Nature's PAINS: Natural Products, Natural Product Drugs, and Pan Assay Interference Compounds (PAINS)” (J Nat Prod, 2016).

Tests used:
Rattus norvegicus = test: Antiinflammatory activity in po dosed rat assessed as inhibition of reverse passive arthus reaction; type: functional
[1] = molecular target: Potassium voltage-gated channel subfamily A member 3 (Mus musculus, UniProt P16390); test: Inhibition of mouse Kv1.3 expressed in L929 cells at -80 mV holding potential by whole cell patch-clamp method; type: cell-based
[2] = Selectivity ratio of mouse Kv1.3 to ratio of KCa3.1 (unknown origin)

Chain of Potassium voltage-gated channel subfamily A member 3 (P16390 whole entry): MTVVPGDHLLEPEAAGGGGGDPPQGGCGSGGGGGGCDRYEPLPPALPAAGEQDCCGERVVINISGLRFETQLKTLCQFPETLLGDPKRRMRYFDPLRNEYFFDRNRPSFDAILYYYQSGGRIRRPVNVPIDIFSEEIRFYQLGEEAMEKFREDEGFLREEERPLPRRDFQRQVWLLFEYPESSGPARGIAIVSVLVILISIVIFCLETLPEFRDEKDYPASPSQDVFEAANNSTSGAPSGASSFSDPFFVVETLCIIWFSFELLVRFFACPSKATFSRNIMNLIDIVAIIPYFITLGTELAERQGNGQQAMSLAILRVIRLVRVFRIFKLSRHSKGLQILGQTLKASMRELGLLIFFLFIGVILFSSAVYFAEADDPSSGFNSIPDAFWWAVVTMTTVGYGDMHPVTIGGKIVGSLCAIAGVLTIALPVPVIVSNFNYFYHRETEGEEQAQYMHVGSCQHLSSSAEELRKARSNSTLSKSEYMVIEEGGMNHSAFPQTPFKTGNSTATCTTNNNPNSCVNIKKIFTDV

EC50 [1] [nM] | Selectivity ratio [2] | Compound | ED50 (Rattus norvegicus) [mg/kg]
 |  | Cc1cc(=O)c2c(O)cc(O)c([C@H]3CCN(C)C[C@H]3O)c2o1 [ROHITUKINE] | 2.5
1000 | 10 | COc1c(C(C)=O)c(O)c(OCCCc2ccccc2)c2occc12 | 
